From PubChem BioAssay (NCI) come the findings set out here.

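Compound exposure: 48 hours, 5 concentrations, 96-well plates. The concentration for full growth arrest is given as TGI.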 A value given as a limit tells only on which side of the number the result lay.

Some test systems named below: DLD-1 colon; DMS 114 small cell lung; DMS 273 small cell lung; HOP-18 NSCLC; KM20L2 colon; LXFL 529 NSCLC; SNB-78 CNS; M19-MEL melanoma; XF 498 CNS; RXF-631 renal.
Holding throughout (test): NCI anticancer screen, dose series, 48 h

With `CCNC(C)Cc1ccccc1` (centres undefined), the TGI in the assay on DLD-1 colon, in the assay with DMS 114 small cell lung, in the assay with DMS 273 small cell lung, with HOP-18 NSCLC, with KM20L2 colon and with LXFL 529 NSCLC was over 100 µM in each case. For the same molecule, in the assay with SNB-78 CNS, the TGI is over 100 µM.
In the case of `Cc1ccccc1C(=O)c1c(O)c2c(c(O)c1Br)CCCC2`, the TGI amounted to 58.9 µM in the assay with DLD-1 colon; 27.5 µM with DMS 114 small cell lung; 35.4 µM in the assay with DMS 273 small cell lung; 25.2 µM in the assay with HOP-18 NSCLC; 41.4 µM with KM20L2 colon; 26.9 µM in the assay with LXFL 529 NSCLC. The TGI was found to be 29.4 µM with M19-MEL melanoma, 47.5 µM with SNB-78 CNS and 36.6 µM with XF 498 CNS.
Consider `CCC(C)n1c(C)nc2c1C(=O)c1ccccc1C2=O` (centres undefined), for which the TGI in the assay on DLD-1 colon is over 100 µM; with DMS 273 small cell lung, over 100 µM; in the assay on KM20L2 colon it was over 100 µM; in the assay with LXFL 529 NSCLC, over 100 µM; with M19-MEL melanoma, 37.5 µM; in the assay on SNB-78 CNS it was over 100 µM. This molecule showed a TGI in the assay with XF 498 CNS of over 100 µM.
For the molecule `CC(=O)OC12/C(=N/O)CCCCCC1c1ccccc12` (centres undefined), the TGI in the assay on DMS 114 small cell lung, with DMS 273 small cell lung, with HOP-18 NSCLC, in the assay with KM20L2 colon, in the assay with LXFL 529 NSCLC and in the assay on M19-MEL melanoma was over 100 µM throughout. The TGI in the assay on SNB-78 CNS and with XF 498 CNS was over 100 µM in each case.
On to `CN(C)CCOc1cccc2c1C(=O)c1ccccc1C2=O`, for which the TGI in the assay on DLD-1 colon was 34.5 µM; in the assay with DMS 114 small cell lung, 22.6 µM; in the assay on DMS 273 small cell lung, 21.7 µM; in the assay on HOP-18 NSCLC, 46.9 µM; in the assay on KM20L2 colon, 46.8 µM; in the assay on LXFL 529 NSCLC, 43.6 µM. Besides, the TGI in the assay with M19-MEL melanoma was 17.9 µM; in the assay on SNB-78 CNS, 38.2 µM; with XF 498 CNS, 33 µM.
Consider `C=C(CN(C)C)C(=O)c1ccccc1C`, for which the TGI in the assay with DLD-1 colon was 45.8 µM; with DMS 114 small cell lung, 42.5 µM; in the assay with DMS 273 small cell lung, 75.8 µM; in the assay with HOP-18 NSCLC it was over 52.4 µM; in the assay on KM20L2 colon, over 100 µM; in the assay on LXFL 529 NSCLC, 30.7 µM. The TGI is 53.5 µM with M19-MEL melanoma, over 100 µM in the assay with RXF-631 renal, over 100 µM in the assay with SNB-78 CNS and over 75.6 µM in the assay on XF 498 CNS.
`CCc1ccc(N=Cc2cc(OC)c(OC)c(OC)c2)cc1`: the TGI was over 100 µM in the assay on DLD-1 colon; 76.1 µM with DMS 114 small cell lung; over 100 µM in the assay on DMS 273 small cell lung; over 100 µM with HOP-18 NSCLC; over 100 µM in the assay on KM20L2 colon; over 100 µM in the assay on LXFL 529 NSCLC. In addition, the TGI with M19-MEL melanoma, in the assay on SNB-78 CNS and in the assay with XF 498 CNS was over 100 µM each time.
